Data on 20 compounds can be found in ChEMBL document CHEMBL1138420, “Discovery of adamantane ethers as inhibitors of 11beta-HSD-1: Synthesis and biological evaluation” (Bioorg Med Chem Lett, 2007).

The structures appear in SMILES notation.

Series [1] has as its target T1, 11-beta-hydroxysteroid dehydrogenase 1 (Homo sapiens, UniProt P28845). Briefly: Inhibition of human 11beta-HSD1 by SPA.
Series [2] has as its target 11-beta-hydroxysteroid dehydrogenase 1 (Mus musculus, UniProt P50172). Briefly: Inhibition of mouse 11beta-HSD1 by SPA.
The target of series [3] is T2, 11-beta-hydroxysteroid dehydrogenase type 2 (Homo sapiens, UniProt P80365).
T2 sequence (P80365 whole entry): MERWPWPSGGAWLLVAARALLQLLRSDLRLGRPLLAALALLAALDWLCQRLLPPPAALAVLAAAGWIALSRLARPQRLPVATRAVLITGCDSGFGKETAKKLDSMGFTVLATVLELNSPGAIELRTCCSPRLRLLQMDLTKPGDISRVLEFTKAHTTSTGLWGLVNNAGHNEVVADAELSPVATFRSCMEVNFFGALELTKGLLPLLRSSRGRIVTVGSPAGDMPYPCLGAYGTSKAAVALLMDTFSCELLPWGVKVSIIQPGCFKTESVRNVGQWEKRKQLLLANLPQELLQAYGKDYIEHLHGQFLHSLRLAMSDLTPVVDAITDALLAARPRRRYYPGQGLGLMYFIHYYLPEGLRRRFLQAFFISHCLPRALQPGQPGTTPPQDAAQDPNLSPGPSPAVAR
Description: Inhibition of human 11beta-HSD2 by SPA.

Series [4] has as its target T3, 11-beta-hydroxysteroid dehydrogenase type 2 (Mus musculus, UniProt P51661).
T3 sequence (P51661 whole entry): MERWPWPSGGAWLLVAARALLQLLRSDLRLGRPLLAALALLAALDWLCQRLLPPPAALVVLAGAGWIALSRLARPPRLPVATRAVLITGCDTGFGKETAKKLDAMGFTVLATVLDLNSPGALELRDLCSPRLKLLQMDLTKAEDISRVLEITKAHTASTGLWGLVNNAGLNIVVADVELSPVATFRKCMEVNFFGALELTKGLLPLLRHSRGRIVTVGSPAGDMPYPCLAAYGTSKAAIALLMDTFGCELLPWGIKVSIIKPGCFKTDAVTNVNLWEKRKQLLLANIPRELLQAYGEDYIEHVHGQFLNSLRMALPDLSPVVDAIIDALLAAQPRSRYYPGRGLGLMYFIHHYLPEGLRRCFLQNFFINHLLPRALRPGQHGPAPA
Briefly: Inhibition of mouse 11beta-HSD2 by SPA.

For series [5], the target named is T1, 11-beta-hydroxysteroid dehydrogenase 1. Description: Inhibition of human 11beta-HSD1 expressed in HEK293 cells by FPIA. The series is classed as cell-based.
Series [6] can be described thus: Metabolic stability in mouse liver microsome after 30 mins. The conditions noted are these: liver microsomes, read-out: Stability. Format: ADME.
Series [7] can be described thus: Plasma clearance in ob/ob mouse at 5 mg/kg, iv or 10 mg/kg, po. The series is classed as ADME, organism-based.
The nature of series [8]: Half life in ob/ob mouse at 5 mg/kg, iv or 10 mg/kg, po. Format: ADME, organism-based. The conditions noted are these: in vivo.
Series [9] is described as follows: Bioavailability in ob/ob mouse at 10 mg/kg. Format: ADME, organism-based. The conditions noted are these: in vivo, oral.
For series [10], the system named is Mus musculus. Description: Ex vivo inhibition of 11beta-HSD1 in ob/ob mouse liver at 30 mg/kg, po after 1 hr. Format: functional.
Series [11] has as its system Mus musculus. Briefly: Ex vivo inhibition of 11beta-HSD1 in ob/ob mouse liver at 30 mg/kg, po after 7 hrs. The series is classed as functional.
In series [12] the test system is Mus musculus. Description: Ex vivo inhibition of 11beta-HSD1 in ob/ob mouse liver at 30 mg/kg, po after 16 hrs. The series is classed as functional.
In series [13] the test system is Mus musculus. Description: Ex vivo inhibition of 11beta-HSD1 in ob/ob mouse fat at 30 mg/kg, po after 1 hr. Format: functional.
For series [14], the system named is Mus musculus. Description: Ex vivo inhibition of 11beta-HSD1 in ob/ob mouse fat at 30 mg/kg, po after 7 hrs. The series is classed as functional.
The subject of series [15] is Mus musculus. Description: Ex vivo inhibition of 11beta-HSD1 in ob/ob mouse fat at 30 mg/kg, po after 16 hrs. The series is classed as functional.
The test system of series [16] is Mus musculus. Briefly: Ex vivo inhibition of 11beta-HSD1 in ob/ob mouse brain at 30 mg/kg, po after 1 hr. The series is classed as functional.
The subject of series [17] is Mus musculus. Description: Ex vivo inhibition of 11beta-HSD1 in ob/ob mouse brain at 30 mg/kg, po after 7 hrs. The series is classed as functional.
Series [18] relates to Mus musculus. Description: Ex vivo inhibition of 11beta-HSD1 in ob/ob mouse brain at 30 mg/kg, po after 16 hrs. Format: functional.

11-beta-hydroxysteroid dehydrogenase 1 (Mus musculus, UniProt P50172), sequence (P50172 whole entry): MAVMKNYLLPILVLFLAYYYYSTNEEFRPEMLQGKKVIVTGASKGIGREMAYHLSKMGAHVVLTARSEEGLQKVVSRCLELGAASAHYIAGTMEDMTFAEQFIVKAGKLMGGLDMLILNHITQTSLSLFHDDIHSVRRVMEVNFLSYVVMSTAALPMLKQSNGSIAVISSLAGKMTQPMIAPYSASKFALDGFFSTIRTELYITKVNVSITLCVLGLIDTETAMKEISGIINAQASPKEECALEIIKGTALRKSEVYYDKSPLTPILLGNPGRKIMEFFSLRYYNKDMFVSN
T1 sequence (P28845 whole entry): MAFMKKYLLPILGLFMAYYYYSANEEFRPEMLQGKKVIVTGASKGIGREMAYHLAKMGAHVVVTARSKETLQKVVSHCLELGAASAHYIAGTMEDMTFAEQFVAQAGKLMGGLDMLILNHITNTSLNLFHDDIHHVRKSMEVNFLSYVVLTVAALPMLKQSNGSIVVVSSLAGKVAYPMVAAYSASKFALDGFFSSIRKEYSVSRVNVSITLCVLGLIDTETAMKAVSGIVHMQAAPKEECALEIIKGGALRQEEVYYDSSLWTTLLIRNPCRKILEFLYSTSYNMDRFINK

By IC50 is commonly meant the concentration that gives 50% inhibition. Read a low IC50 as higher potency. For `CC(C)(Oc1ccccc1Cl)C(=O)N[C@H]1C2CC3CC1C[C@](C(=O)NS(=O)(=O)c1ccccc1)(C3)C2`, the IC50 in [1] was found to be 500 nM; in series [2], 1000 nM.

Turning to `CC(C)(Oc1cccc(Cl)c1)C(=O)N[C@H]1C2CC3CC1C[C@](C(=O)O)(C3)C2`, the IC50 in [1] was 15 nM; in series [3], 3500 nM; in series [2], 51 nM; in series [4], 540 nM; in series [5] it was 190 nM. In [6], the remaining at 0.5 h came out at 100%.

On to `CC(C)(Oc1ccc(Cl)cc1)C(=O)N[C@H]1C2CC3CC1C[C@](C(=O)NCc1cncs1)(C3)C2`, for which, in series [2], the IC50 is 11 nM. The remaining at 0.5 h in series [6] turned out to be 5%.

Regarding `CC(C)(Oc1ccc(Cl)cc1)C(=O)N[C@H]1C2CC3CC1C[C@](C(=O)NCc1ccc(C(=O)NS(C)(=O)=O)cc1)(C3)C2`, the remaining at 0.5 h in [6] came out at 51%.

In the case of `CC(C)(Oc1ccc(Cl)cc1)C(=O)N[C@H]1C2CC3CC1C[C@](COCC(=O)O)(C3)C2`, the IC50 was 110 nM in series [1]; more than 100000 nM in series [3]; 210 nM in [2]; 45000 nM in series [4]; 670 nM in series [5]. Besides, the remaining at 0.5 h in [6] was determined as 100%.

One may read the half-life as the time in which the quantity being followed falls by half. A higher half-life goes with slow loss. As a reminder, the bioavailability is dose-corrected exposure relative to a reference, in per cent. In series [2], `CC(C)(Oc1ccc(Cl)cc1)C(=O)N[C@H]1C2CC3CC1C[C@](C(N)=O)(C3)C2` came in with an IC50 of 3 nM. Further, the remaining at 0.5 h in series [6] was found to be 43%. Moreover, the clearance in series [7] is 70 mL/min/kg. The half-life in series [8] was 0.3 h. Besides, in series [9], the bioavailability worked out at 20%.

In the case of `CC(C)(Oc1ccccc1)C(=O)N[C@H]1C2CC3CC1C[C@](C(=O)O)(C3)C2`, in series [2], the IC50 is 119 nM. Moreover, the remaining at 0.5 h in series [6] worked out at 98%.

In [2], `COc1ccc(OC(C)(C)C(=O)N[C@H]2C3CC4CC2C[C@](C(N)=O)(C4)C3)cc1` registered an IC50 of 4 nM. Besides, the remaining at 0.5 h in [6] was found to be 57%.

What is called inhibition in vivo is how much of the control response was suppressed. Read a high inhibition in vivo as strong suppression. As for `CC(C)(Oc1ccccc1Cl)C(=O)N[C@H]1C2CC3CC1C[C@](C(=O)O)(C3)C2`, the concentration for half-maximal inhibition (IC50) in series [1] came to 8 nM; in series [3] it was 1800 nM; in [2] it was 8 nM; in [4] it was 140 nM; in [5], 59 nM. Also, in series [6], the remaining at 0.5 h is 94%. The inhibition in vivo at 30 mg/kg in the series with Mus musculus [10] was found to be 81%; with Mus musculus [11] it was 76%; in the series with Mus musculus [12], 35%; in the series on Mus musculus [13], 67%; in the series on Mus musculus [14], 47%; in the series on Mus musculus [15] it was 6%. The compound further gave a clearance in [7] of 15 mL/min/kg. The half-life in series [8] is 3.9 h. For the same compound, in series [9], the bioavailability was 100%.

Consider `CNC(=O)NC(=O)[C@]12CC3CC(C1)[C@@H](NC(=O)C(C)(C)Oc1ccc(Cl)cc1)C(C3)C2`, for which the IC50 in series [2] came out at 8 nM.

In the case of `CC(C)(Oc1ccccc1)C(=O)N[C@H]1C2CC3CC1C[C@](C(N)=O)(C3)C2`, the IC50 in series [2] was determined as 4 nM. Besides, in series [6], the remaining at 0.5 h is 78%.

With `CC(C)(Oc1ccc(Cl)cc1)C(=O)N[C@H]1C2CC3CC1C[C@](C(=O)NCc1ccc(S(N)(=O)=O)cc1)(C3)C2`, the IC50 was 51 nM in series [1]; more than 30000 nM in series [3]; 24 nM in series [2]; 16000 nM in series [4]; 300 nM in series [5]. In addition, the remaining at 0.5 h in [6] turned out to be 35%. Also, the inhibition in vivo at 30 mg/kg with Mus musculus [10] came to 45%; in the series on Mus musculus [11], 55%; with Mus musculus [12], 58%; in the series on Mus musculus [13] it was 15%; in the series on Mus musculus [14], 18%; in the series with Mus musculus [15], 5%. For the same compound, the inhibition in vivo at 30 mg/kg is 0% with Mus musculus [16], 0% with Mus musculus [17] and 18% with Mus musculus [18]. In series [7], this compound had a clearance of 15 mL/min/kg. Also, the half-life in series [8] was 3.8 h. The compound further yielded a bioavailability in series [9] of 44%.

`CC(C)(Oc1ccc(F)cc1Cl)C(=O)N[C@H]1C2CC3CC1C[C@](c1nnn[nH]1)(C3)C2` showed an IC50 in series [2] of 10 nM. The remaining at 0.5 h in [6] turned out to be 87%.

On to `CC(C)(Oc1ccc(Cl)cc1)C(=O)N[C@H]1C2CC3CC1C[C@](C(=O)NCc1ccc(C(=O)O)cc1)(C3)C2`, for which the IC50 in series [2] came out at 12 nM. Also, the remaining at 0.5 h in [6] turned out to be 94%. Also, the inhibition in vivo at 30 mg/kg in the series with Mus musculus [10] amounted to 99%; with Mus musculus [11] it was 93%; in the series with Mus musculus [12], 77%; in the series on Mus musculus [13] it was 37%; in the series on Mus musculus [14] it was 38%; in the series with Mus musculus [15], 36%.

In the case of `CC(C)(Oc1ccc(Cl)cc1)C(=O)N[C@H]1C2CC3CC1C[C@](C(=O)NCc1ccc(-c4nnn[nH]4)cc1)(C3)C2`, in series [2], it took 18 nM to reach half-maximal inhibition (IC50). For the same compound, the remaining at 0.5 h in series [6] is 51%.

For the compound `CC(C)(Oc1ccc(Cl)cc1)C(=O)N[C@H]1C2CC3CC1C[C@](CO)(C3)C2`, in series [2], the midpoint of inhibition, the IC50, lay at 6 nM. Besides, the remaining at 0.5 h in series [6] amounted to 19%.

As to `CC(C)(Oc1ccc(Cl)cc1)C(=O)N[C@H]1C2CC3CC1C[C@](C(=O)NCc1ccncc1)(C3)C2`, the IC50 in series [1] is 25 nM; in series [3] it was 5300 nM; in [2] it was 14 nM; in series [4] it was 19000 nM; in series [5], 91 nM. In series [6], the remaining at 0.5 h was found to be 16%.

Regarding `CC(C)(Oc1ccccc1Cl)C(=O)N[C@H]1C2CC3CC1C[C@](C(=O)NS(C)(=O)=O)(C3)C2`, the IC50 in [1] came to 96 nM; in [3] it was 580 nM; in [2], 28 nM; in [4], 1200 nM; in series [5] it was 744 nM. Further, the remaining at 0.5 h in [6] was 94%.

With `CC(C)(Oc1ccc(Cl)cc1)C(=O)N[C@H]1C2CC3CC1C[C@](C(=O)O)(C3)C2`, the IC50 in [2] was 70 nM. For the same compound, the remaining at 0.5 h in series [6] stood at 89%.

As for `CC(C)(Oc1ccc(Cl)cc1)C(=O)N[C@H]1C2CC3CC1C[C@](C(=O)NCC(N)=O)(C3)C2`, the concentration for half-maximal inhibition (IC50) in series [2] was 4 nM. Further, in series [6], the remaining at 0.5 h came to 78%.
